Measured values published in patent US8722687B2, “Imidazo [1,2-A]pyridine derivatives as FGFR kinase inhibitors for use in therapy” (Astex Therapeutics Ltd, priority 2009, dated 2014).

What was measured:
[1] = molecular target: T1, FGFR3 (Homo sapiens, UniProt P22607); experiment: FGFR3 in vitro kinase inhibitory activity assay; assay type: biochemical; details: read-out: FGFR3 IC50(μM) or % I
T1 construct: purchased Upstate
Method: (§1) FGFR3, VEGFR2 and PDGFR in vitro Kinase Inhibitory Activity Assays
(§2) Enzymes (from Upstate), prepared at 2× final concentration, were incubated with test compounds, biotinylated Flt3 substrate (biotin-VASSDNEYFYVDF) (Cell Signalling Technology Inc.) and ATP in the appropriate assay buffer (Table 1). The reaction was allowed to proceed for 3 hours (FGFR3), 1 hour (VEGFR2, PDGFR-beta) at room temperature on a plate shaker at 700 rpm before being stopped with 35 mM EDTA, pH 8 (FGFR3, VEGFR2) or 55 mM EDTA, pH 8 (PDGFR-beta). 5× detection mix/50 mM HEPES pH 7.5, 0.1% BSA, 11.34 nM Eu-anti-pY (PY20) (PerkinElmer) 74 nM SA-XL665 (Cisbio) for FGFR3, 50 mM HEPES, pH 7.5, 0.1% BSA, 11.34 nM Eu-anti-pY (PY20), 187.5 nM SA-XL665 for VEGFR2 and 50 mM HEPES, pH 7.5, 0.1% BSA, 11.34 nM Eu-anti-pY (PT66) (PerkinElmer), 375 nM SA-XL665 (Cisbio) for PDGFR-beta) was then added to each well and the plate sealed and incubated at room temperature for one hour on a plate shaker at 700 rpm. The plate was then read on a Packard Fusion plate reader or a BMG Pherastar both in TRF mode.

[2] = molecular target: T2, VEGFR2 (Homo sapiens, UniProt P35968); experiment: VEGFR2 in vitro kinase inhibitory activity assay; assay type: biochemical; details: read-out: VEGFR2 IC50(μM) or % I
T2 construct: purchased Upstate
Method: as §1, §2
Kinase Assay buffers were:
B: 50 mM HEPES pH 7.5, 6 mM MnCl2, 1 mM DTT, 0.01% TritonX-100, 0.1 mM Sodium orthovanadate

[3] = tested on: parental wild-type Ba/F3 cells; experiment: Ba/F3 (WT) cell proliferation assay (Alamar Blue); assay type: cell-based, murine; details: read-out: BaF3 WT prolif
Method: (§3) Ba/F3-TEL-FGFR3 & Ba/F3 (WT) Cell Proliferation Assays
(§4) Stably transfected Ba/F3-TEL-FGFR3 cells were plated out into black 96-well tissue culture plates with clear bottoms in RPMI medium containing 10% FBS and 0.25 mg/ml G418 at a density of 5×10^3 cells/well (200 μl per well). The parental wild-type Ba/F3 cells (DSMZ no.: ACC 300) were plated out into black 96-well tissue culture plates with clear bottoms in RPMI medium containing 10% FBS and 2 ng/ml mouse IL-3 (R&D Systems) at a density of 2.5×10^3 cells/well (200 μl per well). Plates were placed in an incubator overnight before adding the compounds the following day. Dilutions of compounds were made in DMSO starting at 10 mM and were diluted into the wells to give a final DMSO concentration of 0.1% in assay. Compounds were left on the cells for 72 hours before the plates were removed from the incubator and 20 μl of Alamar Blue™ (Biosource) was added to each well. Plates were placed in the incubator for 4-6 hours before reading plates at 535 nm (excitation)/590 nm (emission) on a Fusion plate reader (Packard). Where inhibition is high an IC50 can be determined.

[4] = molecular target: T3, Ba/F3-TEL-FGFR3 cells (Homo sapiens, UniProt P22607); experiment: Ba/F3-TEL-FGFR3 cell proliferation assay (Alamar Blue); assay type: cell-based, murine; details: 72 hours; read-out: BaF3-TEL-FGFR3 prolif
T3 construct: fused on or other part: TEL (ETV6) N-terminal oligomerising part fused to the FGFR3 kinase part; P41212 (Transcription factor ETV6)
Method: as §3, §4

[5] = tested on: human prostate cancer PC3 cells; experiment: EB1 cellular assay (Eb1 Comet assay, microtubule disruption); assay type: cell-based; details: PC-3, lowest active concentration: Eb1 foci absent in at least 50% of treated PC3 cells, 1 hour, read-out: Eb1 LAC
Method: The Eb1 Comet assay relies on the detection of the Eb1 protein at the plus end of polymerizing microtubules (Mimori-Kiyosue, 2000) using indirect immunofluorescence. Disruption of microtubule dynamics through de-polymerization or stabilization results in a de-localization of Eb1 from the growing microtubule ends and this is visualized by the disappearance of Eb1 containing cytoplasmic foci.
Briefly, human prostate cancer PC3 cells obtained from the American Type Culture Collection were grown in 96-well plates (Greiner, cat. no. 655090) in HAM's F12 medium as recommended by the provider (ATCC). The cells were treated for 1 hour at 37° C. with compounds dissolved in DMSO (0.6% final DMSO concentration). The culture medium was then removed by aspiration and the cells were fixed by adding cold methanol (−20° C.). After a 15 minutes incubation at −20° C., the cells were washed twice with DPBS (Gibco) containing 0.5% Triton X-100. Mouse Eb1 antibody (BD Transduction Laboratories, cat. no. 610534) was added to the cells (1/250 dilution in DPBS containing 1% BSA) and incubated overnight at room temperature. The antibody was subsequently removed and the cells washed twice with DPBS, 0.5% Triton X-100. Secondary goat anti-mouse antibody conjugated to Alexa 488 fluorescent dye (Molecular Probes) was added at a 1/500 dilution in DPBS, 1% BSA and incubated for 1 hour at 37° C. The cells were washed twice with DPBS, 0.5% Triton X-100 and then DPBS containing 0.5% Triton X-100 and 1/5000 Hoechst 33342 (Molecular Probes) was added. Microscopy based Eb1 foci visualization was carried out using an IN Cell Analyser 1000 (Amersham Biosciences) using a 20× objective. Compound dependent microtubule disruption was visually determined by the disappearance in Eb1 foci. The lowest active concentration (LAC) was determined as the concentration where Eb1 foci were absent in at least 50% of the treated cells. Herein the effects of test compounds are expressed as pLAC (the negative log value of the LAC-value)

[6] = molecular target: T4, Ba/F3-Flt3 cells (Homo sapiens, UniProt P36888, cells depend on it, form not given); experiment: Ba/F3-Flt3 assay (Alamar Blue); assay type: cell-based, murine; details: without IL3
T4 construct: Ba/F3-flt3 − IL3 pIC50; other: without IL3
T4 sequence (P36888 1-993): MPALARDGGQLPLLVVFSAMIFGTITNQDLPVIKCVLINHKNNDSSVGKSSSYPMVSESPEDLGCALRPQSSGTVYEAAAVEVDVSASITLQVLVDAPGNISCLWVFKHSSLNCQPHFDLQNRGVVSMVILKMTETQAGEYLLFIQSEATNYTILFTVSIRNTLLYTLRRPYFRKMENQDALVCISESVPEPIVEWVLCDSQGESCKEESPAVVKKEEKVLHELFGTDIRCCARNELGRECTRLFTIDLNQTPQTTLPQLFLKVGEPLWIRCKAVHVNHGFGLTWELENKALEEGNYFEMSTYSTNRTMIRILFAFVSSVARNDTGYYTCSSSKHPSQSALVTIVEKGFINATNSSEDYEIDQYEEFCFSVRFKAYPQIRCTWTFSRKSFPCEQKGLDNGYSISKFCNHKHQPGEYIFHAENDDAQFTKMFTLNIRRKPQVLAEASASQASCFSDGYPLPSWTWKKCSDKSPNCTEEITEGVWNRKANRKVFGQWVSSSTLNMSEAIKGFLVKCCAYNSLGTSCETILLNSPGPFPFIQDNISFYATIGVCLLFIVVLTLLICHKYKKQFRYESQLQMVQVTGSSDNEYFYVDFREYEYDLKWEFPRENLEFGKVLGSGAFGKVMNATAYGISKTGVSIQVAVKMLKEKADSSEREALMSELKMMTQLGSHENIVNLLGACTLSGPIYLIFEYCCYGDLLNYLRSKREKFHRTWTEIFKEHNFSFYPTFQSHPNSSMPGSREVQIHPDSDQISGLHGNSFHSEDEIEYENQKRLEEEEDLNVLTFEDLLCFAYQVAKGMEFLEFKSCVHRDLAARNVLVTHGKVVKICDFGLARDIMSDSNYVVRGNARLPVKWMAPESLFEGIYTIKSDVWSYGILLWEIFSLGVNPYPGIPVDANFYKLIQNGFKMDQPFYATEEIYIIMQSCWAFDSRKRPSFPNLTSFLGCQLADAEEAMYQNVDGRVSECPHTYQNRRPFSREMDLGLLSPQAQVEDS
From the text: (§5) Ba/F3, a murine interleukin-3 dependent pro-B cell line is increasingly popular as a model system for assessing both the potency and downstream signaling of kinase oncogenes, and the ability of small-molecule kinase inhibitors to block kinase activity. Facilitated by their growth properties. Ba/F3 cells have recently been adapted to high throughput assay formats for compound profiling. Further, several published approaches show promise in predicting resistance to small-molecule kinase inhibitors elicited by point mutations interfering with inhibitor binding (Ba/F3 cells and their use in kinase drug discovery; Markus Warmuth, Sungjoon Kim, Xiang-ju Gu, Gang Xia and Francisco Adria'n; Curr Opin Oncol 19:55-60).
(§6) Ba/F3-Flt3 cells (cultured in phenol red free RPMI-1640, 10% A FCS and 50 μg/ml Gentamycin at 37° C. and 5% 002) were plated at a density of 10000 cells in a total volume of 180 μl medium in a black TC-treated sterile 96-well plate (Corning). After 24 hours, drugs in different dilutions were added to a final volume of 200 μl and at a final DMSO concentration of 0.2% prior to incubation at 37° C., and 5% CO2.
(§7) After 24 h, to each well 40 μl Alamar Blue solution (Aldrich) was added and the cells were further incubated for 4 hours at 37° C. Fluorescence (ex. 544, em. 590 nm) was measured using a fluorescence reader (Labsystems) and IC50's were calculated.
(§8) In the condition containing IL3, 10 ng/ml of murine IL3 (PeproTech) was added during compound incubation.

[7] = tested on: Ba/F3-Flt3 cells; experiment: Ba/F3-Flt3 assay (Alamar Blue); assay type: cell-based, murine; details: Mus musculus, 24 h; with 10 ng/ml murine IL3; read-out: Ba/F3-flt3 + IL3 pIC50 (converted)
From the text: as §5, §6, §7, §8

T1 sequence (P22607 23-806): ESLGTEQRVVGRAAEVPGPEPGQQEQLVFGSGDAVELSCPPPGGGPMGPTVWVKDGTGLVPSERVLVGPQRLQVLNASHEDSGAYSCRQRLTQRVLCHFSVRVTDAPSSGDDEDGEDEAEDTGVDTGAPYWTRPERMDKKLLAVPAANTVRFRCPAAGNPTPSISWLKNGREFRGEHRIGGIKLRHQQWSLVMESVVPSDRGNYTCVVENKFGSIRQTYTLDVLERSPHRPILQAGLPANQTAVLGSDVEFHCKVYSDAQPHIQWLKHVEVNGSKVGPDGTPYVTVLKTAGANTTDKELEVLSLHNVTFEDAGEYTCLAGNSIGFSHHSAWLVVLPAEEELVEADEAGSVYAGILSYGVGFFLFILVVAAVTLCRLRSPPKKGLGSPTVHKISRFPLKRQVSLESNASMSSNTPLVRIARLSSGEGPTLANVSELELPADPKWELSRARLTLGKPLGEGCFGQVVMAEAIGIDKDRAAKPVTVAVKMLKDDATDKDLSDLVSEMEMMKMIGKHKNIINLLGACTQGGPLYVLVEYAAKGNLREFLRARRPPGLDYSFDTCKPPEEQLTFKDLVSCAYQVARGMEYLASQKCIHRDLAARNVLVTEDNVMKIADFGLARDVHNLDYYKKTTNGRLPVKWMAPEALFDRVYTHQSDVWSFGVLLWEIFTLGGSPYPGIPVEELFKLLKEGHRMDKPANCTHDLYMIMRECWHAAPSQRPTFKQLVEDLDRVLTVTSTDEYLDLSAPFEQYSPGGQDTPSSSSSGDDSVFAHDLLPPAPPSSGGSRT
T2 sequence (P35968 20-1356): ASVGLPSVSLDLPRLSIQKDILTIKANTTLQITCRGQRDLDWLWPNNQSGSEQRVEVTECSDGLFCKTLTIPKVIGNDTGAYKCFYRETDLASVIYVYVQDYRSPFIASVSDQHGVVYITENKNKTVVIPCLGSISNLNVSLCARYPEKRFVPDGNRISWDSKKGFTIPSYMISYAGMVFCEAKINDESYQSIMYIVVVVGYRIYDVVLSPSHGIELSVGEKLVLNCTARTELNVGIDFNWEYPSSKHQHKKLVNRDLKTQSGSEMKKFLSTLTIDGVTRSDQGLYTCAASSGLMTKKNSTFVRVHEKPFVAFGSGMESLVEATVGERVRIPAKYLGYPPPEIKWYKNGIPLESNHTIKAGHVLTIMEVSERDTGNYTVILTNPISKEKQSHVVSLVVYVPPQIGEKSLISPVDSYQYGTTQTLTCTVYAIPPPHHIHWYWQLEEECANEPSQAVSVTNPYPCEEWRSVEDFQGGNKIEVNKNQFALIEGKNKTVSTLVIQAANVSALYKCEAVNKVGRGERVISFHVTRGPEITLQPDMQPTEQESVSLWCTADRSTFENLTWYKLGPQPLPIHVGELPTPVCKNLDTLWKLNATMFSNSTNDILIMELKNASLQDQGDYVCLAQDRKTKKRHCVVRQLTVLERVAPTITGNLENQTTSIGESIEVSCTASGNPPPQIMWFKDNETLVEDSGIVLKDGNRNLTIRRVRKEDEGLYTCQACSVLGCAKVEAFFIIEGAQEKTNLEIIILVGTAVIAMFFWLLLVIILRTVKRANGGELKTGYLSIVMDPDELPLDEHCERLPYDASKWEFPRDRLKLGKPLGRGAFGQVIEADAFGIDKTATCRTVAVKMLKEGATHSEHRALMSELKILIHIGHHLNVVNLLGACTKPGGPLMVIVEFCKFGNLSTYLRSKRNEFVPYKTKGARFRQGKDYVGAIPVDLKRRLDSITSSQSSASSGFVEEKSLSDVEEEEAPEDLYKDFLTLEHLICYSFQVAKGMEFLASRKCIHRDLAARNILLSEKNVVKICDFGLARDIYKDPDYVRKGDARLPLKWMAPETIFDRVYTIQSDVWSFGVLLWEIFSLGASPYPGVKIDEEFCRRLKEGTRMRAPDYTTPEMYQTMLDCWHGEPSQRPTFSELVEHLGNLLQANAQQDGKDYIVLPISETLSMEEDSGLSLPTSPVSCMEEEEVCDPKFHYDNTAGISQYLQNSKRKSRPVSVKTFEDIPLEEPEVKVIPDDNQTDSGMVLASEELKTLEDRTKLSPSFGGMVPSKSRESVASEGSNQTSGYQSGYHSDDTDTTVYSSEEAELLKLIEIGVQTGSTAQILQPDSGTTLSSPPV
T3 sequence (P22607 whole entry, change not shown, the tested form may be a part): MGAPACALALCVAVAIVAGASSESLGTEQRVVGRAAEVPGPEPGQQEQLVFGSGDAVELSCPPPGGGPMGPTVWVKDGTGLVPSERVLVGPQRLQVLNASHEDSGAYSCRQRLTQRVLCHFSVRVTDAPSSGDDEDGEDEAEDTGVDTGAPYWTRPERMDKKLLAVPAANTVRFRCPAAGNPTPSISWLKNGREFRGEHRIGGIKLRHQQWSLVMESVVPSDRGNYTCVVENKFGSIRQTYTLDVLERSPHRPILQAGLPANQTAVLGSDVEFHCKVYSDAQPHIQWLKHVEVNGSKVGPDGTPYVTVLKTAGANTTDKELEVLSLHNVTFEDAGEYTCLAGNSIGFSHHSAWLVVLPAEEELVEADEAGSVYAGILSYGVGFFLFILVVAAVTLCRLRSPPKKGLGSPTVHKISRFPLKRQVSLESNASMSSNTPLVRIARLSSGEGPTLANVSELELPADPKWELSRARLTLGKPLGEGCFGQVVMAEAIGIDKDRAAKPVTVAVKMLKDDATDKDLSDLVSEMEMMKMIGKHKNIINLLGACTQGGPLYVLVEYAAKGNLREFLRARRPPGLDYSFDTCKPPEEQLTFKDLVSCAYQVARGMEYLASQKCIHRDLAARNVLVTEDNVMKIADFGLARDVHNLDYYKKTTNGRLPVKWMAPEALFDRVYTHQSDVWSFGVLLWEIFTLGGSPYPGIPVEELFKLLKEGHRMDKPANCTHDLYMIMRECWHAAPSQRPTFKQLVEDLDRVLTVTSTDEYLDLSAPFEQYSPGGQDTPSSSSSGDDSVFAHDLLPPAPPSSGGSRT

Row | SMILES | IC50 [1] [µM] | IC50 [2] [µM] | IC50 ([3]; BaF3, 72 hours, with mouse IL-3) [nM] | GI50 [4] [nM] | inhibition at 0.3 µM ([1]; 3 h, % I at 0.3 μM) [%] | minimal effective concentration [5] [µM] | Ba/F3-flt3 − IL3 pIC50 [6] | IC50 [7] [nM] | inhibition at 10 µM ([3]; Mus musculus, BaF3, 72 h, % at 10.0 μM) [%]
1 | CC(C)Oc1cc(NC(=O)NCC(F)(F)F)cc(-c2cnc3cc(-c4cc(N(C)C)ncn4)ccn23)c1 [Compound F-21, 1-{3-[7-(6-Dimethylamino-pyrimidin-4-yl)-imidazo[1,2-a]pyridin-3-yl]-5-isopropoxy-phenyl}-3-(2,2,2-trifluoro-ethyl)-urea] | 0.012 | 0.79 | 2300 | 240 | – | – | – | – | –
2 | O=C(NCC(F)(F)F)Nc1cc(OC2CCC2)cc(-c2cnc3cc(-c4ccnc(C(F)(F)F)n4)ccn23)c1 [Compound F-12, 1-{3-Cyclobutoxy-5-[7-(2-trifluoromethyl-pyrimidin-4-yl)-imidazo[1,2-a]pyridin-3-yl]-phenyl}-3-(2,2,2-trifluoro-ethyl)-urea] | – | 2.2 | – | – | 60 | > 10 | <5 | > 10000 | –
3 | CC(C)Oc1cc(NC(=O)NCC(F)(F)F)cc(-c2cnc3cc(-c4nnco4)ccn23)c1 [Compound F-22, 1-[3-Isopropoxy-5-(7-[1,3,4]oxadiazol-2-yl-imidazo[1,2-a]pyridin-3-yl)-phenyl]-3-(2,2,2-trifluoro-ethyl)-urea] | 0.041 | 1.1 | – | 1300 | – | – | – | – | 19
4 | Cc1nnc(-c2ccn3c(-c4cc(CN(C)C)cc(NC(=O)NCC(F)(F)F)c4)cnc3c2)o1 [Compound F-24, 1-{3-Dimethylaminomethyl-5-[7-(5-methyl-[1,3,4]oxadiazol-2-yl)-imidazo[1,2-a]pyridin-3-yl]-phenyl}-3-(2,2,2-trifluoroethyl)-urea] | – | 2.8 | – | – | – | > 10 | <5 | > 10000 | –
5 | Cc1nnc(-c2ccn3c(-c4cc(NC(=O)NCC(C)C)cc(OC(C)C)c4)cnc3c2)o1 [Compound F-14, 1-Isobutyl-3-{3-isopropoxy-5-[7-(5-methyl-[1,3,4]oxadiazol-2-yl)-imidazo[1,2-a]pyridin-3-yl]-phenyl}-urea] | 0.2 | 2.6 | – | – | – | – | – | – | –
6 | Cc1nnc(-c2ccn3c(-c4cc(NC(=O)NC(O)C(F)(F)F)cc(OC(C)C)c4)cnc3c2)o1 (stereo not drawn) [Compound F-32, 1-{3-Isopropoxy-5-[7-(5-methyl-[1,3,4]oxadiazol-2-yl)-imidazo[1,2-a]pyridin-3-yl]-phenyl}-3-(2,2,2-trifluoro-1-hydroxyethyl)-urea] | – | 1.2 | – | – | – | > 10 | <5 | > 10000 | –
7 | CNCc1cc(NC(=O)NCC(F)(F)F)cc(-c2cnc3cc(-c4nnc(C)o4)ccn23)c1 [Compound F-25, 1-{3-Methylaminomethyl-5-[7-(5-methyl-[1,3,4]oxadiazol-2-yl)-imidazo[1,2-a]pyridin-3-yl]-phenyl}-3-(2,2,2-trifluoroethyl)-urea] | 0.46 | 1.7 | – | – | – | > 10 | <5 | > 10000 | –
8 | Cc1nnc(-c2ccn3c(-c4cc(NC(=O)NCC(F)(F)F)cc(NC(C)C)c4)cnc3c2)o1 [Compound F-30] | 0.17 | 5.8 | – | – | – | 10 | <5 | > 10000 | –
